The term Tmax denotes the time at which the peak concentration occurs. By fraction unbound is commonly meant the share of the substance not bound to proteins or other matrix. High values mean much free substance, low ones little free substance. The Cmax is the peak of the concentration-time curve.

Series [1] in a line: Plasma pharmacokinetics of irinotecan and its metabolites. The conditions noted are these: human, iv.
The next series relates to plasma proteins. The series is described as follows: Sorafenib fraction unbound in patient plasma by equilibrium dialysis. Format: in vitro ADME. The note with it: human. For orientation: Equilibrium dialysis compares concentrations on both sides of a semipermeable membrane.
The next series in a line: clinical. The note with it: human, in vivo, 400 mg.

With `CCc1c2c(nc3ccc(OC(=O)N4CCC(N5CCCCC5)CC4)cc13)-c1cc3c(c(=O)n1C2)COC(=O)[C@]3(O)CC` [Irinotecan], the Tmax in series [1] (100 mg/m2) and in series [1] (120 mg/m2) was 1.4 h each time.
For the molecule `CNC(=O)c1cc(Oc2ccc(NC(=O)Nc3ccc(Cl)c(C(F)(F)F)c3)cc2)ccn1` [Sorafenib, reference compound], the fraction unbound in the series with plasma proteins is 0.0027 to 0.0067. In “clinical” (Cmax), this molecule came in with a Cmax of 4710 ± 3520 ng/mL. Besides, the Tmax in the series “clinical” (Tmax) is 4.1 h.
